Measured values taken from US8541407B2 (ArQule, Inc., priority 2010, dated 2013).
Structures can show the parent of a compound that is named as a salt.

Biological target: AKT1 (Homo sapiens (Human), UniProt P31749)
Assay: Inactive Akt Alpha Screen Assay
Settings: non *labeled: Akt Alpha Screen assay; read-out: AKT1 biochemical assay, IC50
In short: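 AKT1 activated in situ by PDK1, MAPKAPK2, lipid vesicles and ATP, then phosphorylating biotinylated crosstide for 30 min at room temperature. Stopped with 10 mM EDTA; phosphopeptide detected by AlphaScreen using phospho-AKT substrate antibody (1:350), Protein A acceptor and streptavidin donor beads, 90 min dark, ex 640/em 570 nm.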

Chain of AKT1 (P31749 whole entry): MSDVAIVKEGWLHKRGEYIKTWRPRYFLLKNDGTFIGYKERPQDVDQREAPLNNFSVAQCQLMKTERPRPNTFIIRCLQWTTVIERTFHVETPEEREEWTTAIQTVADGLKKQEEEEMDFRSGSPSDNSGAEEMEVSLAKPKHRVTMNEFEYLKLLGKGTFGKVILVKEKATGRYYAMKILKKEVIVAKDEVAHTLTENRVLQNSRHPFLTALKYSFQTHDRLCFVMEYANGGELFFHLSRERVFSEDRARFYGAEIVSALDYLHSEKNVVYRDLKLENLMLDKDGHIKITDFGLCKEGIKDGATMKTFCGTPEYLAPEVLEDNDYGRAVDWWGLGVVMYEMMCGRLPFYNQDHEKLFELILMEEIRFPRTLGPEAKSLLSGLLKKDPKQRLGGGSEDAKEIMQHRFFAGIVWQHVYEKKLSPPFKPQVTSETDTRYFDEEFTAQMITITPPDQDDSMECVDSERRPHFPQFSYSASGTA

IC50	Compound
0.63 µM	O=C(NCCc1ccc(-c2nnc3n2-c2cccnc2Nc2ccccc2-3)cc1)c1ccccc1 [Example 111, N-(4-(9H-benzo[f]pyrido[2,3-b][1,2,4]triazolo[4,3-d][1,4]diazepin-3-yl)phenethyl)benzamide]
0.45 µM	O=C(c1ccccc1F)N1CCN(Cc2ccc(-c3nnc4n3-c3cccnc3Nc3ccccc3-4)cc2)CC1 [Example 141, (4-(4-(9H-benzo[f]pyrido[2,3-b][1,2,4]triazolo[4,3-d][1,4]diazepin-3-yl)benzyl)piperazin-1-yl)(2-fluorophenyl)methanone]
0.14 µM	N#Cc1ccc(C(=O)Nc2ccc(-c3nnc4n3-c3cccnc3Nc3ccccc3-4)cc2)cc1 [Example 38, N-(4-(9H-benzo[f]pyrido[2,3-b][1,2,4]triazolo[4,3-d][1,4]diazepin-3-yl)phenyl)-4-cyanobenzamide]
5.8 µM	c1ccc(CCN2CCN(Cc3ccc(-c4nnc5n4-c4cccnc4Nc4ccccc4-5)cc3)CC2)cc1 [Example 94, 3-(4-((4-phenethylpiperazin-1-yl)methyl)phenyl)-9H-benzo[f]pyrido[2,3-b][1,2,4]triazolo[4,3-d][1,4]diazepine]
3.8 µM	c1ccc(CCNC2(c3ccc(-c4nnc5n4-c4cccnc4Nc4ccccc4-5)cc3)CCC2)cc1 [Example 229, 1-(4-(9H-benzo[f]pyrido[2,3-b][1,2,4]triazolo[4,3-d][1,4]diazepin-3-yl)phenyl)-N-phenethylcyclobutanamine]
1.5 µM	COCC(=O)Nc1ccc(-c2nnc3n2-c2cccnc2Nc2ccccc2-3)cc1 [Example 53, N-(4-(9H-benzo[f]pyrido[2,3-b][1,2,4]triazolo[4,3-d][1,4]diazepin-3-yl)phenyl)-2-methoxyacetamide]
1.2 µM	COc1ccc(NC(=O)NC2CCN(Cc3ccc(-c4nnc5n4-c4cccnc4Nc4ccccc4-5)cc3)CC2)cc1Cl [Example 172, 1-(1-(4-(9H-benzo[f]pyrido[2,3-b][1,2,4]triazolo[4,3-d][1,4]diazepin-3-yl)benzyl)piperidin-4-yl)-3-(3-chloro-4-methoxyphenyl)urea]
0.99 µM	N#Cc1ccc(C(=O)N2CCN(Cc3ccc(-c4nnc5n4-c4cccnc4Nc4ccccc4-5)cc3)CC2)cc1 [Example 139, 4-(4-(4-(9H-benzo[f]pyrido[2,3-b][1,2,4]triazolo[4,3-d][1,4]diazepin-3-yl)benzyl)piperazine-1-carbonyl)benzonitrile]
1.8 µM	O=C(c1ccc(F)cc1)C1CCN(Cc2ccc(-c3nnc4n3-c3cccnc3Nc3ccccc3-4)cc2)CC1 [Example 164, (1-(4-(9H-benzo[f]pyrido[2,3-b][1,2,4]triazolo[4,3-d][1,4]diazepin-3-yl)benzyl)piperidin-4-yl)(4-fluorophenyl)methanone]
5 µM	CC(=O)Nc1ccc(S(=O)(=O)NC2CCN(Cc3ccc(-c4nnc5n4-c4cccnc4Nc4ccccc4-5)cc3)CC2)cc1 [Example 151, N-(4-(N-(1-(4-(9H-benzo[f]pyrido[2,3-b][1,2,4]triazolo[4,3-d][1,4]diazepin-3-yl)benzyl)piperidin-4-yl)sulfamoyl)phenyl)acetamide]
0.44 µM	O=C(Nc1ccccc1F)NC1CCN(Cc2ccc(-c3nnc4n3-c3cccnc3Nc3ccccc3-4)cc2)CC1 [Example 167, 1-(1-(4-(9H-benzo[f]pyrido[2,3-b][1,2,4]triazolo[4,3-d][1,4]diazepin-3-yl)benzyl)piperidin-4-yl)-3-(2-fluorophenyl)urea]
0.65 µM	O=C(Nc1ccc(-c2nnc3n2-c2cccnc2Nc2ccccc2-3)cc1)c1ccc(C(F)(F)F)cc1 [Example 52, N-(4-(9H-benzo[f]pyrido[2,3-b][1,2,4]triazolo[4,3-d][1,4]diazepin-3-yl)phenyl)-4-(trifluoromethyl)benzamide]
0.61 µM	O=C(NC1(c2ccc(-c3nnc4n3-c3cccnc3Nc3ccccc3-4)cc2)CCC1)c1ccc(F)cc1 [Example 200, N-(1-(4-(9H-benzo[f]pyrido[2,3-b][1,2,4]triazolo[4,3-d][1,4]diazepin-3-yl)phenyl)cyclobutyl)-4-fluorobenzamide]
1.9 µM	CN(C)c1ccc(C(=O)Nc2ccc(-c3nnc4n3-c3cccnc3Nc3ccccc3-4)cc2)cc1 [Example 45, N-(4-(9H-benzo[f]pyrido[2,3-b][1,2,4]triazolo[4,3-d][1,4]diazepin-3-yl)phenyl)-4-(dimethylamino)benzamide]
1.6 µM	c1ccc2c(c1)Nc1ncccc1-n1c(-c3ccc(CN4CCOCC4)cc3)nnc1-2 [Example 84, 4-(4-(9H-benzo[f]pyrido[2,3-b][1,2,4]triazolo[4,3-d][1,4]diazepin-3-yl)benzyl)morpholine]
2.1 µM	Nc1ccc(-c2nnc3n2-c2cccnc2Nc2ccccc2-3)cn1 [Example 5, hydrochloride]
1 µM	OCc1ccc(-c2nnc3n2-c2cccnc2Nc2ccccc2-3)cc1 [Example 23, (4-(9H-benzo[f]pyrido[2,3-b][1,2,4]triazolo[4,3-d][1,4]diazepin-3-yl)phenyl)methanol]
4.4 µM	O=C1CCCN1CCCNCc1ccc(-c2nnc3n2-c2cccnc2Nc2ccccc2-3)cc1 [Example 78, 1-(3-((4-(9H-benzo[f]pyrido[2,3-b][1,2,4]triazolo[4,3-d][1,4]diazepin-3-yl)benzyl)amino)propyl)pyrrolidin-2-one]
1.4 µM	O=C(c1ccco1)N1CCN(Cc2ccc(-c3nnc4n3-c3cccnc3Nc3ccccc3-4)cc2)CC1 [Example 92, (4-(4-(9H-benzo[f]pyrido[2,3-b][1,2,4]triazolo[4,3-d][1,4]diazepin-3-yl)benzyl)piperazin-1-yl)(furan-2-yl)methanone]
8.1 µM	Nc1cccc(-c2nnc3n2-c2cccnc2Nc2ccccc2-3)c1 [Example 18, hydrochloride]
0.12 µM	Cc1cc(C(=O)Nc2ccc(-c3nnc4n3-c3cccnc3Nc3ccccc3-4)cc2)no1 [Example 48, N-(4-(9H-benzo[f]pyrido[2,3-b][1,2,4]triazolo[4,3-d][1,4]diazepin-3-yl)phenyl)-5-methylisoxazole-3-carboxamide]
4.6 µM	COCCNCc1ccc(-c2nnc3n2-c2cccnc2Nc2ccccc2-3)cc1 [Example 73, N-(4-(9H-benzo[f]pyrido[2,3-b][1,2,4]triazolo[4,3-d][1,4]diazepin-3-yl)benzyl)-2-methoxyethanamine]
0.83 µM	c1ccc(OC2CCN(Cc3ccc(-c4nnc5n4-c4cccnc4Nc4ccccc4-5)cc3)CC2)cc1 [Example 188, 3-(4-((4-phenoxypiperidin-1-yl)methyl)phenyl)-9H-benzo[f]pyrido[2,3-b][1,2,4]triazolo[4,3-d][1,4]diazepine]
5.3 µM	Cc1nc(C)c(S(=O)(=O)NC2CCN(Cc3ccc(-c4nnc5n4-c4cccnc4Nc4ccccc4-5)cc3)CC2)s1 [Example 153, N-(1-(4-(9H-benzo[f]pyrido[2,3-b][1,2,4]triazolo[4,3-d][1,4]diazepin-3-yl)benzyl)piperidin-4-yl)-2,4-dimethylthiazole-5-sulfonamide]
6.7 µM	c1ccc2c(c1)Nc1ncccc1-n1c(-c3ccc(CNCC4CC4)cc3)nnc1-2 [Example 93, N-(4-(9H-benzo[f]pyrido[2,3-b][1,2,4]triazolo[4,3-d][1,4]diazepin-3-yl)benzyl)-1-cyclopropylmethanamine]
